Test results reported in US20100196475A1, “CONTROLLED RELEASE TABLET FORMULATION CONTAINING MAGNESIUM ALUMINOMETASILICATE” (priority 2007, published 2010).
In brackets after ≈: the same amount, converted by molar mass. Where a name gives a salt, the structure may show the parent alone.

Experiment: physchem
Assay type: physicochemical
Conditions: for solubility: water
Protocol: Four different active agents with different solubilities were selected for the preparation of multi-layer tablets, as follows:
9410 (Prednisone)—solubility of 0.1 mg/ml in water.

Compound | solubility described in words | solubility
CC(C)(Cc1c[nH]c2ccccc12)NCC(O)COc1ccccc1C#N (stereo not drawn) [compound 8110, Bucindolol] | freely soluble | 257 mg/mL (≈ 707 mM)
COc1ccc([C@@H]2Sc3ccccc3N(CCN(C)C)C(=O)[C@@H]2OC(C)=O)cc1 [compound 8403, Diltiazem HCl] | Very soluble | 1200 mg/mL
C[C@]12C=CC(=O)C=C1CC[C@@H]1[C@@H]2C(=O)C[C@@]2(C)[C@H]1CC[C@]2(O)C(=O)CO [compound 9410, Prednisone] | soluble | 0.1 mg/mL (≈ 0.279 mM)
